Assay results: patent publication EP4577640B1, “COMPOSITION COMPRISING AVENANTHRAMIDE C FOR INDUCING DIFFERENTIATION OF MESENCHYMAL STEM CELLS INTO CHONDROCYTES AND METHOD OF USING THE SAME” (Medeze Treasury Ptd. Ltd, priority 2023, dated 2025)

Assays:
[1] = test system: Adipose-derived Mesenchymal Stem Cells (MSCs); experiment: Immunofluorescence analysis of chondrocyte marker proteins on day 21 of in vitro chondrogenic differentiation (monolayer culture); format: cell-based, human
Protocol: (§1) In Vitro Chondrogenic Differentiation: In Vitro, chondrogenic differentiation using monolayer culture was performed. P4 MSCs were seeded in Gelatin-coated 24 well plates at 6000 cells/cm2. MSCs were expanded for 3 days before switching to the following Chondrocyte differentiation media (CDM) for 21 days (FIG. 1A).
(§2) Standard chondrocyte differentiation medium (STD) consists of DMEM Low Glucose (DMEM LG; Gibco #31600083), supplemented with 0.5 µg/ml hydrocortisone (Sigma-Aldrich #H0888), 1% Fetal bovine serum (FBS; Biowest #S181B), 1 X Insulin-Transferrin-Selenium-X (ITS-X; Gibo #51500056) or ITS+1 Liquid Media Supplement (Sigma-Aldrich #I2521), 10ng/ml recombinant human TGF-beta 3 (R&D Systems #8420-B3-025), […] L-ascorbate-2-phosphate (Sigma-Aldrich #49752), 1% Penicillin-Streptomycin (pen-strep; Gibco #15140122) and 500ng/ml Amphotericin B (Amp B; Gibco #15290026). Standard CDM (STD) will be used as a control (FIG. 1A).
Standard chondrocyte differentiation medium (STD) or CDM1 is then supplemented with 3 different treatment groups: 100 nM Avenanthramide C (Avn C; Sigma-Aldrich #36465) in CDM2, 500 ug/mL Chondroitin Sulfate (5 x CS; Sigma-Aldrich #C4384) in CDM3, and combination of 100 nM Avenanthramide C and 500 ug/mL Chondroitin Sulfate in CDM4 (FIG. 1A). […]

[2] = test system: Adipose-derived Mesenchymal Stem Cells (MSCs); experiment: RT-PCR mRNA expression analysis of chondrocyte markers relative to GAPDH; format: cell-based, human; conditions: Avn C treatment alone
Protocol: as §1
as §2, with “1A). […]” for “1A).”
It is imperative to investigate the impact of Avn C on transcriptionally regulated chondrocyte properties, both when used individually and in conjunction with chondroitin sulfate at an optimal dosage of 500ug/mL (5X CS). To assess this, RT-PCR mRNA expression analysis is employed, which offers precise quantitative data on relative mRNA expressions. […]

[3] = test system: mouse articular chondrocytes; conditions: cited from earlier work

## O=C(/C=C/c1ccc(O)c(O)c1)Nc1ccc(O)cc1C(=O)O [Avn C, Avenanthramide C]
[1]; 21-day treatment, CDM2 (STD + 100 nM Avn C) compared to CDM1 (STD)
  expression of the COL2A1 protein (immunofluorescence signals): significantly increasing the expression of the COL2A1 protein
[1]; 21 days in STD with 0 nM, 10 nM, 100 nM, 1 uM, 10 uM, 50 uM Avn C, MSCs from a different individual
  optimal concentration of Avn C for enhancing Collagen 2A1 protein signals: around 100 nM
[2]
  COL2A1 expression, transcriptional versus protein level: influences COL2A1 at protein levels (FIGS. 2 and 3) rather than at the transcriptional level
[3]; induced by IL-1β in mouse articular chondrocytes
  expression of catabolic factors MMP-3, -12, and -13: effectively suppressed the expression of catabolic factors
[3]; mouse articular chondrocytes
  IL-1β-mediated reduction of mature factors Collagen 2 (COL2A1) and SOX9: did not impact the IL-1β-mediated reduction of mature factors
